Laboratory results from ChEMBL document CHEMBL1201862, “PubChem BioAssay data set” (2004).
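All cell lines were grown in 96-well plates and treated with compound for 48 hours. Here, GI50 denotes the concentration required for 50% inhibition of growth.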 The source made the active and inactive calls. Rule as the data show it: active = GI50 up to about 1.1 µM and inactive = higher.

Key:
Assay in all cases: NCI anticancer screen, dose series, 48 h
[1] = tested on: CCRF-CEM
[2] = tested on: COLO 205
[3] = tested on: EKVX
[4] = tested on: HCT-116
[5] = tested on: HOP-62
[6] = tested on: IGROV-1
[7] = tested on: LOX IMVI
[8] = tested on: M14
[9] = tested on: OVCAR-5
[10] = tested on: SF-268
[11] = tested on: SF-539
[12] = tested on: SK-OV-3
[13] = tested on: SN12C
[14] = tested on: SR
[15] = tested on: TK-10
[16] = tested on: RXF 393

| Structure (SMILES) | GI50 [1] | GI50 [2] | GI50 [3] | GI50 [4] | GI50 [5] | GI50 [6] | GI50 [7] | GI50 [8] | GI50 [9] | GI50 [10] | GI50 [11] | GI50 [12] | GI50 [13] | GI50 [14] | GI50 [15] | GI50 [16] |
| --- | --- | --- | --- | --- | --- | --- | --- | --- | --- | --- | --- | --- | --- | --- | --- | --- |
| CCOC(=O)C(=C=Cc1cccs1)C(=O)c1ccccc1 | 29.1 µM (inactive) | 17.6 µM (inactive) | 16.7 µM (inactive) | 14.6 µM (inactive) | 18.7 µM (inactive) | 17.3 µM (inactive) | 12.4 µM (inactive) | 15 µM (inactive) | 15.2 µM (inactive) | 15.9 µM (inactive) | 16.5 µM (inactive) | 20.3 µM (inactive) | 15.8 µM (inactive) | 19.9 µM (inactive) | 15 µM (inactive) |  |
| C=CCc1cc(-c2cc(CC=C)c(O)c(CNC)c2)cc(CNC)c1O | 7.4 µM (inactive) | 18.5 µM (inactive) |  | 14.7 µM (inactive) | 18.8 µM (inactive) | 18 µM (inactive) | 13.3 µM (inactive) | 15.6 µM (inactive) |  | 16.3 µM (inactive) |  |  | 17.1 µM (inactive) |  | 17.7 µM (inactive) |  |
| N#CC(C#N)=C1SCC(=O)CS1 | > 100 µM (inactive) | > 100 µM (inactive) | > 100 µM (inactive) | > 100 µM (inactive) | > 100 µM (inactive) | > 100 µM (inactive) | > 100 µM (inactive) | > 100 µM (inactive) | > 100 µM (inactive) | > 100 µM (inactive) | > 100 µM (inactive) | > 100 µM (inactive) | > 100 µM (inactive) | > 100 µM (inactive) | > 100 µM (inactive) | > 100 µM (inactive) |
| C=Cc1c(-c2ccccc2)cnc2[nH]c3ccccc3c12 | > 50 µM (inactive) | > 50 µM (inactive) | 3.4 µM (inactive) | > 50 µM (inactive) | > 50 µM (inactive) | > 50 µM (inactive) | > 50 µM (inactive) | > 50 µM (inactive) | > 50 µM (inactive) | > 50 µM (inactive) |  | > 50 µM (inactive) | > 50 µM (inactive) | > 50 µM (inactive) | > 50 µM (inactive) | > 50 µM (inactive) |
| O=NN(CC1(O)OCC(O)C(O)C1O)C(Cc1c[nH]c2ccccc12)C(=O)O (configuration not stated) | > 100 µM (inactive) | > 100 µM (inactive) | > 100 µM (inactive) | > 100 µM (inactive) | > 100 µM (inactive) | > 100 µM (inactive) | > 100 µM (inactive) | > 100 µM (inactive) | > 100 µM (inactive) |  | > 100 µM (inactive) | > 100 µM (inactive) |  |  | > 100 µM (inactive) | > 100 µM (inactive) |
| O=C1CSC(/C(=C/c2ccccc2)c2nc3ccccc3[nH]2)=N1 | 34 µM (inactive) | > 100 µM (inactive) | > 100 µM (inactive) | 41.7 µM (inactive) | 41.2 µM (inactive) | 44.9 µM (inactive) | > 100 µM (inactive) | 57 µM (inactive) | > 100 µM (inactive) | > 100 µM (inactive) | 23.6 µM (inactive) | 23.3 µM (inactive) | 75.3 µM (inactive) | 68.2 µM (inactive) | > 100 µM (inactive) |  |
| CCCC(O)c1cn(-c2cccc(S(=O)(=O)O)c2)nn1 (configuration not stated) | > 100 µM (inactive) | > 100 µM (inactive) | > 100 µM (inactive) | > 100 µM (inactive) | > 100 µM (inactive) | > 100 µM (inactive) | > 100 µM (inactive) | > 100 µM (inactive) | > 100 µM (inactive) | > 100 µM (inactive) | > 100 µM (inactive) | > 100 µM (inactive) | > 100 µM (inactive) |  | > 100 µM (inactive) | > 100 µM (inactive) |
| CCc1cccc(CC)c1NC(=O)C1=C(C)NC(C)=C(C(=O)Nc2c(CC)cccc2CC)C1c1ccc2c(c1)OCO2 | 5.93 µM (inactive) | 13.4 µM (inactive) | 19.9 µM (inactive) | 18.2 µM (inactive) | 19.2 µM (inactive) | 18.8 µM (inactive) | 12.7 µM (inactive) | 16.8 µM (inactive) | 17.7 µM (inactive) | 18.1 µM (inactive) | 22.5 µM (inactive) | 25.8 µM (inactive) | 15.3 µM (inactive) | 3.66 µM (inactive) | 33.6 µM (inactive) |  |
| CC(C)(C)NNC(=O)/C(=C/c1ccc([N+](=O)[O-])cc1)NC(=O)c1ccccc1 | 31.3 µM (inactive) | 29 µM (inactive) | > 100 µM (inactive) | > 10 µM (inactive) | > 100 µM (inactive) | > 100 µM (inactive) | 17.2 µM (inactive) | > 100 µM (inactive) | > 100 µM (inactive) | 55.8 µM (inactive) | > 100 µM (inactive) | > 100 µM (inactive) | > 100 µM (inactive) | 21.6 µM (inactive) | > 100 µM (inactive) | > 100 µM (inactive) |
| O=C(OCCO)C1CC2CC1C1(C2)OCCO1 (configuration not stated) | > 100 µM (inactive) | > 100 µM (inactive) | > 100 µM (inactive) | > 100 µM (inactive) | > 100 µM (inactive) | > 100 µM (inactive) | > 100 µM (inactive) | > 100 µM (inactive) | > 100 µM (inactive) | > 100 µM (inactive) | > 100 µM (inactive) | > 100 µM (inactive) | > 100 µM (inactive) |  | > 100 µM (inactive) | > 100 µM (inactive) |
| C/C(=N/Nc1ccc([N+](=O)[O-])cc1[N+](=O)[O-])C(CC(C(=O)Nc1ccccc1C)/C(C)=N\Nc1ccc([N+](=O)[O-])cc1[N+](=O)[O-])C(=O)Nc1ccccc1C (configuration not stated) | > 100 µM (inactive) | 12.8 µM (inactive) | 18.2 µM (inactive) | 13.5 µM (inactive) | 11.9 µM (inactive) | 15.8 µM (inactive) | 14.4 µM (inactive) | 18 µM (inactive) | 16.9 µM (inactive) | 7.67 µM (inactive) | 13 µM (inactive) | 30.1 µM (inactive) | 6 µM (inactive) |  | 17.9 µM (inactive) | 6.49 µM (inactive) |
| N#CCC(=O)N1CCCCCCC1 | > 100 µM (inactive) | 14.1 µM (inactive) | > 100 µM (inactive) | > 100 µM (inactive) | > 100 µM (inactive) | > 100 µM (inactive) | > 100 µM (inactive) | > 100 µM (inactive) | > 100 µM (inactive) | > 100 µM (inactive) | > 100 µM (inactive) | > 100 µM (inactive) | > 100 µM (inactive) |  | > 100 µM (inactive) | > 100 µM (inactive) |
| O=C(COC(=O)c1cccc2c(=O)c3ccccc3[nH]c12)Nc1ccc(Cl)cc1 | 54 µM (inactive) | > 100 µM (inactive) | 8.28 µM (inactive) | 13.6 µM (inactive) | 22.1 µM (inactive) | 70.6 µM (inactive) | 23.2 µM (inactive) | 78.9 µM (inactive) |  | > 100 µM (inactive) | 26.1 µM (inactive) | 82.8 µM (inactive) | > 100 µM (inactive) | 19.7 µM (inactive) | 13.1 µM (inactive) | 16.8 µM (inactive) |
| O=C(NC12CC3CC(CC(F)(C3)C1)C2)c1ccccc1 | > 100 µM (inactive) | > 100 µM (inactive) | > 100 µM (inactive) | > 100 µM (inactive) | > 100 µM (inactive) | > 100 µM (inactive) | > 100 µM (inactive) | > 100 µM (inactive) | > 100 µM (inactive) |  | > 100 µM (inactive) | > 100 µM (inactive) |  |  | > 100 µM (inactive) | > 100 µM (inactive) |
| CCN(CC)Cc1cc(Nc2c3ccccc3nc3c2[nH]c2ccccc23)ccc1O |  | 1.02 µM (active) | 2.45 µM (inactive) | 0.345 µM (active) | 1.14 µM (inactive) | 1.16 µM (inactive) | 1.22 µM (inactive) | 1.7 µM (inactive) | 1.22 µM (inactive) | 1.42 µM (inactive) | 1.35 µM (inactive) | 2.11 µM (inactive) | 1.67 µM (inactive) | 0.337 µM (active) | 3.61 µM (inactive) | 1.31 µM (inactive) |
| COC1(C)C(=O)N2C1N(C(=O)OC(C)(C)C)CC2(C)C (configuration not stated) | > 100 µM (inactive) | 36.5 µM (inactive) | > 100 µM (inactive) | 96.4 µM (inactive) | > 100 µM (inactive) | > 100 µM (inactive) | 23.5 µM (inactive) | > 100 µM (inactive) | > 100 µM (inactive) | > 100 µM (inactive) | > 100 µM (inactive) | > 100 µM (inactive) | > 100 µM (inactive) |  | > 100 µM (inactive) | > 100 µM (inactive) |
| COc1ccc(C(=O)C/C(=N/NC(N)=S)C(=O)Nc2ccccc2)cc1 | > 100 µM (inactive) | > 100 µM (inactive) | > 100 µM (inactive) | > 100 µM (inactive) |  | > 100 µM (inactive) | > 100 µM (inactive) | > 100 µM (inactive) | > 100 µM (inactive) | > 100 µM (inactive) | > 100 µM (inactive) | > 100 µM (inactive) | > 100 µM (inactive) |  | > 100 µM (inactive) | > 100 µM (inactive) |
| COC(=O)C1=C(C)C(=O)[C@H]2C(C(=O)OC)CCCC[C@@H]12 (some centres not stated) | 40.5 µM (inactive) | > 100 µM (inactive) | > 100 µM (inactive) | 83.9 µM (inactive) | > 100 µM (inactive) | > 100 µM (inactive) |  | > 100 µM (inactive) | > 100 µM (inactive) | > 100 µM (inactive) | > 100 µM (inactive) | > 100 µM (inactive) | > 100 µM (inactive) | 49.1 µM (inactive) | > 100 µM (inactive) | > 100 µM (inactive) |
